According to ChEMBL document CHEMBL1201862, “PubChem BioAssay data set” (2004):
Structures can show the parent of a compound that is named as a salt.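 Five compound concentrations were applied to cells in 96-well plates for 48 hours; endpoints were derived by simple linear interpolation of the resulting dose-response curve. GI50 is the concentration that inhibits growth by half.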 The source made the active and inactive calls. Cut-off read from the data, not from the text of the source: active = GI50 up to about 1.1 µM and inactive = higher.

How the values were obtained:
Test in all cases: NCI tumour cell line growth inhibition, 48 h
DLD-1 = test system: DLD-1
DMS-114 = test system: DMS-114
DMS-273 = test system: DMS-273
HOP-18 = test system: HOP-18
KM-20L2 = test system: KM-20L2
LXFL 529 = test system: LXFL 529
SNB-78 = test system: SNB-78
XF498 = test system: XF498
RXF 631 = test system: RXF 631

Measured: GI50

Oc1cc(-c2ccccc2)nc2cc(Cl)ccc12
active: DLD-1 0.384 µM | DMS-114 0.383 µM | DMS-273 0.526 µM | LXFL 529 0.805 µM | XF498 0.304 µM
inactive: HOP-18 11.2 µM | KM-20L2 1.52 µM | SNB-78 3.34 µM

O=C1CCC2(c3ccc(F)cc3)Nc3cc(Cl)ccc3N12 (stereo not given)
inactive: DLD-1 > 100 µM | DMS-114 38.8 µM | DMS-273 > 100 µM | HOP-18 48.3 µM | KM-20L2 > 100 µM | LXFL 529 65.5 µM | SNB-78 > 100 µM | XF498 20.1 µM

COC(=O)N/N=C(/CCN1CCCC1)CC(c1ccccc1)c1c(O)c2ccccc2oc1=O (stereo not given)
inactive: DLD-1 > 100 µM | DMS-273 > 100 µM | HOP-18 > 100 µM | KM-20L2 > 100 µM | LXFL 529 > 100 µM | SNB-78 > 100 µM | XF498 38.7 µM

O=c1cc2n(c(=O)[nH]1)C1OC(C(O)C1O)[C@H]2CCO (stereo not given in full)
inactive: DLD-1 > 100 µM | DMS-114 > 100 µM | DMS-273 > 100 µM | KM-20L2 > 100 µM | LXFL 529 > 100 µM | SNB-78 > 100 µM

O=C(CC1(O)C(=O)Nc2c(Cl)ccc(Cl)c21)c1ccc(Cl)cc1Cl (stereo not given)
inactive: DLD-1 28 µM | DMS-114 19.3 µM | DMS-273 16.4 µM | HOP-18 35.1 µM | KM-20L2 35.4 µM | LXFL 529 14.6 µM | SNB-78 41.6 µM | XF498 19.8 µM

CCC1CCC2CCCC(C)N12 (stereo not given)
inactive: DLD-1 > 100 µM | DMS-114 > 100 µM | DMS-273 > 100 µM | HOP-18 > 100 µM | KM-20L2 > 100 µM | LXFL 529 > 100 µM | RXF 631 > 100 µM | XF498 > 100 µM

NCCOCn1cc(Cc2cccc(OCc3ccccc3)c2)c(=O)[nH]c1=O
inactive: DLD-1 > 100 µM | DMS-114 77.1 µM | DMS-273 70 µM | HOP-18 > 100 µM | KM-20L2 > 100 µM | LXFL 529 > 100 µM | SNB-78 > 100 µM

Cc1cc(C)c(-n2c(-c3ccc(Br)cc3)cs/c2=N\N=C2C=C(C(C)(C)C)C(=O)C(C(C)(C)C)=C2)c(C)c1
inactive: DLD-1 > 100 µM | DMS-114 > 100 µM | DMS-273 > 100 µM | HOP-18 > 100 µM | KM-20L2 > 100 µM | LXFL 529 > 100 µM | RXF 631 > 100 µM | SNB-78 38.7 µM | XF498 29.9 µM

O=C(/N=C(/Nc1ccccc1)SCCS/C(=N\C(=O)c1ccccc1)Nc1ccccc1)c1ccccc1
inactive: DLD-1 49.8 µM | DMS-114 35.7 µM | DMS-273 78.3 µM | KM-20L2 68.9 µM | LXFL 529 56.2 µM | SNB-78 > 100 µM | XF498 36.9 µM

CC(=O)NNc1ncc(C(=O)/C=C/c2ccccc2C)s1
inactive: DLD-1 > 100 µM | DMS-114 > 100 µM | DMS-273 > 100 µM | HOP-18 > 100 µM | KM-20L2 > 100 µM | RXF 631 > 100 µM | SNB-78 > 100 µM

[O-][S+]1Cc2ccccc2CSS1 (stereo not given)
inactive: DLD-1 18.1 µM | DMS-114 17.2 µM | DMS-273 11.8 µM | HOP-18 27.9 µM | KM-20L2 16.9 µM | LXFL 529 14.1 µM | RXF 631 19.8 µM | SNB-78 20 µM | XF498 19.7 µM

COC(=O)C1=CCS(=O)(=O)C1
inactive: DLD-1 > 100 µM | DMS-114 > 100 µM | HOP-18 > 100 µM | KM-20L2 > 100 µM | LXFL 529 > 100 µM | RXF 631 > 100 µM | SNB-78 > 100 µM | XF498 > 100 µM

O=C(c1ccccc1)[C@H]1Nc2ccc(Cl)cc2[C@H]2c3ccccc3O[C@H]21
inactive: DLD-1 14 µM | DMS-114 15.8 µM | DMS-273 18.7 µM | HOP-18 11.7 µM | KM-20L2 14.9 µM | LXFL 529 15 µM | SNB-78 14.9 µM | XF498 14.7 µM

Nc1cccc2c1-c1c(cccc1[N+](=O)[O-])C2=O
inactive: DLD-1 > 100 µM | DMS-114 > 100 µM | DMS-273 > 100 µM | HOP-18 > 100 µM | KM-20L2 > 100 µM | SNB-78 > 100 µM

CC(=O)O[C@H]1CC2C=CC3C(CCC31)O2 (stereo not given in full)
inactive: DLD-1 > 100 µM | DMS-114 > 100 µM | DMS-273 > 100 µM | HOP-18 > 100 µM | KM-20L2 > 100 µM | LXFL 529 > 100 µM | SNB-78 > 100 µM | XF498 > 100 µM

N#CC(/C(=N/NC(N)=S)C(=O)Nc1cccc(Cl)c1)c1ccccc1 (stereo not given)
inactive: DLD-1 > 100 µM | DMS-114 > 100 µM | DMS-273 > 100 µM | HOP-18 > 100 µM | KM-20L2 > 100 µM | LXFL 529 > 100 µM | RXF 631 > 100 µM | XF498 > 100 µM

CCN(CC)CC(=O)/C=C/c1ccc(C)cc1
inactive: DLD-1 25.1 µM | DMS-114 21.9 µM | DMS-273 22.2 µM | HOP-18 23.2 µM | KM-20L2 20.6 µM | LXFL 529 18.6 µM | SNB-78 51.8 µM | XF498 31 µM

Brc1ccc(C2SCc3nc4ccccc4n32)cc1 (stereo not given)
inactive: DLD-1 10.5 µM | HOP-18 45.5 µM | LXFL 529 7.36 µM | SNB-78 6.32 µM | XF498 11.8 µM

COc1ccc(C2(CN(C)C)COc3cc(OC)c(OC)cc3C2=O)cc1OC (stereo not given)
inactive: DLD-1 20.1 µM | DMS-114 23.6 µM | HOP-18 > 100 µM | KM-20L2 > 100 µM | LXFL 529 20.1 µM | RXF 631 75.7 µM | SNB-78 41.3 µM | XF498 30.1 µM

CCOc1cn(C2OC(CO)C(O)C2O)c(=O)[nH]c1=O (stereo not given)
inactive: DLD-1 90.2 µM | DMS-114 > 100 µM | DMS-273 > 100 µM | HOP-18 > 100 µM | KM-20L2 > 100 µM | LXFL 529 > 100 µM | SNB-78 > 100 µM

CCCCC1(C(NC(=O)c2ccccc2Cl)c2ccncc2)C(=O)N(c2ccccc2)N(c2ccccc2)C1=O (stereo not given)
inactive: DLD-1 39.7 µM | DMS-114 41.4 µM | DMS-273 27 µM | HOP-18 > 100 µM | KM-20L2 59.7 µM | LXFL 529 36.2 µM | SNB-78 56.8 µM | XF498 35.9 µM

Cc1cc2c(CC(=O)O)n[nH]c2c(C(=O)O)c1C
inactive: DLD-1 > 100 µM | DMS-273 > 100 µM | HOP-18 > 100 µM | KM-20L2 > 100 µM | LXFL 529 > 100 µM | RXF 631 > 100 µM | SNB-78 > 100 µM | XF498 > 100 µM

CCCCCCCCc1cc2c(O)c(c1)Cc1cc(CCCCCCCC)cc(c1O)Cc1cc(CCCCCCCC)cc(c1O)Cc1cc(CCCCCCCC)cc(c1O)Cc1cc(CCCCCCCC)cc(c1O)Cc1cc(CCCCCCCC)cc(c1O)C2
inactive: DLD-1 > 100 µM | DMS-114 > 100 µM | HOP-18 > 100 µM | KM-20L2 > 100 µM | LXFL 529 > 100 µM | RXF 631 > 100 µM | SNB-78 > 100 µM | XF498 > 100 µM

CC(C)C1C(=O)NC(CO)Cc2c[nH]c3c(C(c4c[nH]c5ccccc45)C(O)CO)ccc(c23)N1C (stereo not given)
inactive: DLD-1 > 100 µM | DMS-273 > 100 µM | HOP-18 5.56 µM | LXFL 529 96.4 µM | SNB-78 54.7 µM | XF498 20 µM

O=C1CC[C@@H](NC(=O)Cc2ccccc2)C(=O)N1
inactive: DLD-1 > 100 µM | DMS-273 > 100 µM | HOP-18 > 100 µM | KM-20L2 > 100 µM | LXFL 529 > 100 µM | XF498 > 100 µM

O=c1/c(=C/c2ccc(Cl)cc2Cl)sc2nc3ccccc3n12
inactive: DLD-1 > 100 µM | DMS-114 > 100 µM | DMS-273 > 100 µM | HOP-18 > 100 µM | KM-20L2 > 100 µM | LXFL 529 > 100 µM | RXF 631 > 100 µM | SNB-78 > 100 µM | XF498 > 100 µM

CCc1cccc(C)c1NC(=O)CCc1nnc(SC)o1
inactive: DLD-1 > 100 µM | DMS-114 > 100 µM | DMS-273 > 100 µM | HOP-18 > 100 µM | KM-20L2 > 100 µM | LXFL 529 > 100 µM | SNB-78 > 100 µM | XF498 > 100 µM

COC1=CC(=O)C2C(C1=O)C(c1ccccc1)[C@H]2C (stereo not given in full)
inactive: DLD-1 > 10 µM | DMS-273 > 100 µM | LXFL 529 37.2 µM | SNB-78 > 10 µM | XF498 22.3 µM

O=C1Sc2ccccc2C(=O)N2CSCC12 (stereo not given)
inactive: DLD-1 > 100 µM | DMS-114 > 100 µM | DMS-273 > 100 µM | HOP-18 > 100 µM | KM-20L2 > 100 µM | LXFL 529 > 100 µM | SNB-78 > 100 µM | XF498 > 100 µM

Cc1nccc2c1[nH]c1cc(O)ccc12 [HARMOL HYDROCHLORIDE]
inactive: DLD-1 51.1 µM | DMS-114 70.3 µM | DMS-273 54.5 µM | HOP-18 38 µM | KM-20L2 > 100 µM | LXFL 529 > 100 µM | RXF 631 > 100 µM | SNB-78 > 100 µM | XF498 28.4 µM
